From the supplement of paper PMC11061612

What was measured:
Carboplatin = compound: C1CC(C1)(C(=O)[O-])C(=O)[O-].N.N.[Pt+2] [Carboplatin]; settings: max 10 µM
Method in brief: (§1)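 Plates with 1536 wells received cancer cell lines in 7.5 μl of DMEM/F12 or RPMI containing 10% FBS. After 24 hours at 37°C and 5% CO2, cells were dosed for 72 hours with final DMSO typically 0.2%, and viability was read by CellTiter-Glo 2.0 luminescence scaled between blank-well and DMSO-well means. The single-agent IC50 was taken from a logistic fit of the dose responses made with a non-linear mixed effects model, that logistic curve having two parameters.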

AZD5363 = compound: C1CN(CCC1(C(=O)N[C@@H](CCO)C2=CC=C(C=C2)Cl)N)C3=NC=NC4=C3C=CN4 [AZD5363]; settings: max 10 µM
Method in brief: as §1

AZD1775 = compound: C=CCn1c(=O)c2cnc(Nc3ccc(N4CCN(C)CC4)cc3)nc2n1-c1cccc(C(C)(C)O)n1 [AZD1775]; settings: max 3 µM
Method in brief: as §1

Trametinib = compound: CC(=O)Nc1cccc(-n2c(=O)n(C3CC3)c(=O)c3c(Nc4ccc(I)cc4F)n(C)c(=O)c(C)c32)c1 [Trametinib]; settings: max 1 µM
Method in brief: as §1

Paclitaxel = compound: CC(=O)O[C@H]1C(=O)[C@@]2(C)[C@H]([C@H](OC(=O)c3ccccc3)[C@]3(O)C[C@H](OC(=O)[C@H](O)[C@@H](NC(=O)c4ccccc4)c4ccccc4)C(C)=C1C3(C)C)[C@]1(OC(C)=O)CO[C@@H]1C[C@@H]2O [Paclitaxel]; settings: max 3 µM
Method in brief: as §1

Palbociclib = compound: CC(=O)c1c(C)c2cnc(Nc3ccc(N4CCNCC4)cn3)nc2n(C2CCCC2)c1=O [Palbociclib]; settings: max 10 µM
Method in brief: as §1

AZD1390 = compound: CC(C)n1c(=O)n(C)c2cnc3cc(F)c(-c4ccc(OCCCN5CCCCC5)nc4)cc3c21 [AZD1390]; settings: max 0.3 µM
Method in brief: as §1

Venetoclax = compound: CC1(C)CCC(CN2CCN(c3ccc(C(=O)NS(=O)(=O)c4ccc(NCC5CCOCC5)c([N+](=O)[O-])c4)c(Oc4cnc5[nH]ccc5c4)c3)CC2)=C(c2ccc(Cl)cc2)C1 [Venetoclax]; settings: max 1 µM
Method in brief: as §1

Dasatinib = compound: CC1=C(C(=CC=C1)Cl)NC(=O)C2=CN=C(S2)NC3=CC(=NC(=N3)C)N4CCN(CC4)CCO [Dasatinib]; settings: max 2 µM
Method in brief: as §1

SG3199 = compound: CC1=CN2[C@@H](C1)C=NC3=CC(=C(C=C3C2=O)OC)OCCCCCOC4=C(C=C5C(=C4)N=C[C@@H]6CC(=CN6C5=O)C)OC [SG3199]; settings: max 0.001 µM
Method in brief: as §1

AZD2811 = compound: CCN(CCO)CCCOc1ccc2c(Nc3cc(CC(=O)Nc4cccc(F)c4)[nH]n3)ncnc2c1 [AZD2811]; settings: max 1 µM
Method in brief: as §1

SN-38 = compound: CCc1c2c(nc3ccc(O)cc13)-c1cc3c(c(=O)n1C2)COC(=O)[C@]3(O)CC [SN-38]; settings: max 0.3 µM
Method in brief: as §1

AZD0156 = compound: CN(C)CCCOc1ccc(-c2ccc3ncc4c(c3c2)n(C2CCOCC2)c(=O)n4C)cn1 [AZD0156]; settings: max 3 µM
Method in brief: as §1

AZD4320 = compound: CN(CC[C@H](CSC1=CC=CC=C1)NC2=C(C=C(C=C2)S(=O)(=O)NC(=O)C3=CC=C(C=C3)N4CCC(CC4)[C@H](C5=CC=CC=C5C6=CC=C(C=C6)Cl)O)S(=O)(=O)C(F)(F)F)CCO [AZD4320]; settings: max 1 µM
Method in brief: as §1

Alisertib = compound: COc1cc(Nc2ncc3c(n2)-c2ccc(Cl)cc2C(c2c(F)cccc2OC)=NC3)ccc1C(=O)O [Alisertib]; settings: max 10 µM
Method in brief: as §1

Etoposide = compound: COc1cc([C@@H]2c3cc4c(cc3[C@@H](O[C@@H]3O[C@@H]5CO[C@@H](C)O[C@H]5[C@H](O)[C@H]3O)[C@H]3COC(=O)[C@H]23)OCO4)cc(OC)c1O [Etoposide]; settings: max 10 µM
Method in brief: as §1

Gefitinib = compound: COc1cc2ncnc(Nc3ccc(F)c(Cl)c3)c2cc1OCCCN1CCOCC1 [Gefitinib]; settings: max 10 µM
Method in brief: as §1

Prexasertib = compound: COc1cccc(OCCCN)c1-c1cc(Nc2cnc(C#N)cn2)n[nH]1 [Prexasertib]; settings: max 1 µM
Method in brief: as §1

Doxorubicin = compound: COc1cccc2c1C(=O)c1c(O)c3c(c(O)c1C2=O)C[C@@](O)(C(=O)CO)C[C@@H]3O[C@H]1C[C@H](N)[C@H](O)[C@H](C)O1 [Doxorubicin]; settings: max 1 µM
Method in brief: as §1

AZD5153 = compound: COc1nnc2ccc(N3CCC(c4ccc(OCCN5CCN(C)C(=O)[C@H]5C)cc4)CC3)nn12 [AZD5153]; settings: max 1 µM
Method in brief: as §1

Lapatinib = compound: CS(=O)(=O)CCNCc1ccc(-c2ccc3ncnc(Nc4ccc(OCc5cccc(F)c5)c(Cl)c4)c3c2)o1 [Lapatinib]; settings: max 10 µM
Method in brief: as §1

AZD8186 = compound: C[C@@H](Nc1cc(F)cc(F)c1)c1cc(C(=O)N(C)C)cc2c(=O)cc(N3CCOCC3)oc12 [AZD8186]; settings: max 10 µM
Method in brief: as §1

Crizotinib = compound: C[C@@H](Oc1cc(-c2cnn(C3CCNCC3)c2)cnc1N)c1c(Cl)ccc(F)c1Cl [Crizotinib]; settings: max 10 µM
Method in brief: as §1

Savolitinib = compound: C[C@@H](c1ccc2nccn2c1)n1nnc2ncc(-c3cnn(C)c3)nc21 [Savolitinib]; settings: max 1 µM
Method in brief: as §1

AZD6738 = compound: C[C@@H]1COCCN1C2=NC(=NC(=C2)C3(CC3)[S@](=N)(=O)C)C4=C5C=CNC5=NC=C4 [AZD6738]; settings: max 10 µM
Method in brief: as §1

AZD5991 = compound: Cc1c2c(nn1C)CSCc1cc(n(C)n1)CSc1cc(c3ccccc3c1)OCCCc1c(C(=O)O)n(C)c3c-2c(Cl)ccc13 [AZD5991]; settings: max 1 µM
Method in brief: as §1

AZD7648 = compound: Cc1cc2ncnn2cc1Nc1ncc2c(n1)n(C1CCOCC1)c(=O)n2C [AZD7648]; settings: max 10 µM
Method in brief: as §1

Taselisib = compound: Cc1nc(-c2cn3c(n2)-c2ccc(-c4cnn(C(C)(C)C(N)=O)c4)cc2OCC3)n(C(C)C)n1 [Taselisib]; settings: max 10 µM
Method in brief: as §1

Selumetinib = compound: Cn1cnc2c(F)c(Nc3ccc(Br)cc3Cl)c(C(=O)NOCCO)cc21 [Selumetinib]; settings: max 10 µM
Method in brief: as §1

SRA737 = compound: N#Cc1cnc(Nc2cc(NC[C@H]3CNCCO3)c(C(F)(F)F)cn2)cn1 [SRA737]; settings: max 10 µM
Method in brief: as §1

MK-2206 = compound: NC1(c2ccc(-c3nc4ccn5c(=O)[nH]nc5c4cc3-c3ccccc3)cc2)CCC1 [MK-2206]; settings: max 10 µM
Method in brief: as §1

Gemcitabine = compound: Nc1ccn([C@@H]2O[C@H](CO)[C@@H](O)C2(F)F)c(=O)n1 [Gemcitabine]; settings: max 0.3 µM
Method in brief: as §1

[1] = compound: O=C(Nc1ccc2[nH]nc(-c3ccncc3)c2c1)[C@@H]1CCN(CC(=O)N2CCN(c3ccc(-c4ncccn4)cc3)CC2)C1; settings: max 5 µM
Method in brief: as §1

Olaparib = compound: O=C(c1cc(Cc2n[nH]c(=O)c3ccccc23)ccc1F)N1CCN(C(=O)C2CC2)CC1 [Olaparib]; settings: max 10 µM
Method in brief: as §1

5-Fluorouracil = compound: O=c1[nH]cc(F)c(=O)[nH]1 [5-Fluorouracil]; settings: max 20 µM
Method in brief: as §1

Cell Line	IC50, cell viability 72 h (Carboplatin)	IC50, cell viability 72 h (AZD5363)	IC50, cell viability 72 h (AZD1775)	IC50, cell viability 72 h (Trametinib)	IC50, cell viability 72 h (Paclitaxel)	IC50, cell viability 72 h (Palbociclib)	IC50, cell viability 72 h (AZD1390)	IC50, cell viability 72 h (Venetoclax)	IC50, cell viability 72 h (Dasatinib)	IC50, cell viability 72 h (SG3199)	IC50, cell viability 72 h (AZD2811)	IC50, cell viability 72 h (SN-38)	IC50, cell viability 72 h (AZD0156)	IC50, cell viability 72 h (AZD4320)	IC50, cell viability 72 h (Alisertib)	IC50, cell viability 72 h (Etoposide)	IC50, cell viability 72 h (Gefitinib)	IC50, cell viability 72 h (Prexasertib)	IC50, cell viability 72 h (Doxorubicin)	IC50, cell viability 72 h (AZD5153)	IC50, cell viability 72 h (Lapatinib)	IC50, cell viability 72 h (AZD8186)	IC50, cell viability 72 h (Crizotinib)	IC50, cell viability 72 h (Savolitinib)	IC50, cell viability 72 h (AZD6738)	IC50, cell viability 72 h (AZD5991)	IC50, cell viability 72 h (AZD7648)	IC50, cell viability 72 h (Taselisib)	IC50, cell viability 72 h (Selumetinib)	IC50, cell viability 72 h (SRA737)	IC50, cell viability 72 h (MK-2206)	IC50, cell viability 72 h (Gemcitabine)	IC50, cell viability 72 h [1]	IC50, cell viability 72 h (Olaparib)	IC50, cell viability 72 h (5-Fluorouracil)
HuCCT1 (Biliary Tract Carcinoma)	> 10000 nM	> 10000 nM	583 nM	314 nM	294 nM	> 10000 nM	> 300 nM	> 1000 nM	918 nM	> 1 nM	> 1000 nM	184 nM	> 3000 nM	> 1000 nM	> 10000 nM	> 10000 nM	> 10000 nM	35.4 nM	710 nM	780 nM	> 10000 nM	> 10000 nM	> 10000 nM	> 1000 nM	4360 nM	> 1000 nM	> 10000 nM	> 10000 nM	6720 nM	6750 nM	> 10000 nM	> 300 nM	1790 nM	> 10000 nM	> 20000 nM
NCI-H524 (Small Cell Lung Carcinoma)	> 10000 nM	> 10000 nM	974 nM	> 1000 nM	3.26 nM	> 10000 nM	> 300 nM	> 1000 nM	> 2000 nM	> 1 nM	22.3 nM	133 nM	> 3000 nM	415 nM	30.5 nM	> 10000 nM	> 10000 nM	23.6 nM	> 1000 nM	278 nM	> 10000 nM	> 10000 nM	2550 nM	> 1000 nM	4370 nM	> 1000 nM	> 10000 nM	8080 nM	> 10000 nM	> 10000 nM	> 10000 nM	189 nM	> 5000 nM	> 10000 nM	> 20000 nM
LS-123 (Colorectal Carcinoma)	> 10000 nM	> 10000 nM	2920 nM	395 nM	1210 nM	> 10000 nM	> 300 nM	> 1000 nM	557 nM	> 1 nM	> 1000 nM	> 300 nM	> 3000 nM		> 10000 nM	> 10000 nM	> 10000 nM	96.4 nM	611 nM	> 1000 nM	> 10000 nM	> 10000 nM	> 10000 nM	> 1000 nM	> 10000 nM	> 1000 nM	> 10000 nM	1940 nM	> 10000 nM	> 10000 nM	> 10000 nM	> 300 nM	2730 nM	> 10000 nM	> 20000 nM
KS-1 (Glioblastoma)	> 10000 nM	> 10000 nM	> 3000 nM	927 nM	375 nM	> 10000 nM	> 300 nM	> 1000 nM	> 2000 nM	> 1 nM	> 1000 nM	> 300 nM	> 3000 nM	> 1000 nM	3510 nM	> 10000 nM	> 10000 nM	539 nM	> 1000 nM	264 nM	> 10000 nM	> 10000 nM	> 10000 nM	> 1000 nM	> 10000 nM	> 1000 nM	> 10000 nM	3460 nM	> 10000 nM	> 10000 nM	> 10000 nM	> 300 nM	> 5000 nM	> 10000 nM	> 20000 nM
KYAE-1 (Esophageal Adenocarcinoma)	> 10000 nM	> 10000 nM	> 3000 nM	> 1000 nM	> 3000 nM	> 10000 nM	> 300 nM	> 1000 nM	> 2000 nM	> 1 nM	> 1000 nM	> 300 nM	> 3000 nM	> 1000 nM	> 10000 nM	> 10000 nM	4580 nM	829 nM	> 1000 nM	> 1000 nM	3340 nM	> 10000 nM	> 10000 nM	> 1000 nM	> 10000 nM	> 1000 nM	> 10000 nM	1880 nM	> 10000 nM	> 10000 nM	> 10000 nM	> 300 nM	> 5000 nM	> 10000 nM	> 20000 nM
